Assay results from patent publication US20250051375A1, “ANTI-HIV COMPOUNDS” (Gilead Sciences, Inc., priority 2023, published 2025).
pEC50: −log10 of the molar value. In brackets after ≈: the same amount, converted by molar mass.

Key:
[1] = test system: HIV-1 IIIB strain; experiment: MT-4 HIV Wild Type Virus Infection Assay (IIIB Virus); format: cell-based; conditions: Human immunodeficiency virus 1, IIIB, MT4, 120 h, MT-4 cells acutely infected with HIV-1 IIIB, 5 day incubation, Cell-titer glo
Procedure, shortened: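 MT-4 cells at 2×10^6 cells/ml in RPMI/10% FBS were acutely infected with HIV-1 IIIB for 1 h at 37° C, diluted 25× and added to serially diluted compounds. After 5 days at 37° C, viability read by CellTiter-Glo luminescence; EC50 from dose-response curves.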

[2] = biological target: bovine intestinal alkaline phosphatase (Bos taurus (Bovine), UniProt P19111); experiment: BiALP: conversion by bovine intestinal alkaline phosphatase; format: in vitro ADME; conditions: 2 μM substrate, 100 ng/mL iALP, Tris pH 7.8, 37° C., 60 minutes; for [Intermediate A] or [Amprenavir]: parent formed
bovine intestinal alkaline phosphatase, sequence (P19111 20-506): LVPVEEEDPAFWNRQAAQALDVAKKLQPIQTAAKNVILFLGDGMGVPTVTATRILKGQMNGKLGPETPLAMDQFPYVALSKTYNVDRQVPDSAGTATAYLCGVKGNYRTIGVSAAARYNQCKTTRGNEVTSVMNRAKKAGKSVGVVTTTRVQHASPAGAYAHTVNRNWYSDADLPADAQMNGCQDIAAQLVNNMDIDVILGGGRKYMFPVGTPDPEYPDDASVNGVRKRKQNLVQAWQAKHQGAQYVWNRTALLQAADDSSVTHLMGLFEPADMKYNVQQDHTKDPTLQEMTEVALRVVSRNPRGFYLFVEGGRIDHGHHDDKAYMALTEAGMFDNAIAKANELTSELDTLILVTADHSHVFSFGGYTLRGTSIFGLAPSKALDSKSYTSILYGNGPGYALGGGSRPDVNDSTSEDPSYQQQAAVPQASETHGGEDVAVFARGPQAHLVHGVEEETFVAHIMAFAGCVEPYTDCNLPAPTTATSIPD
Procedure, shortened: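 Compounds at 2 μM final were incubated 60 min at 37° C in 0.1 M Tris-HCl pH 7.8 with 1 mM MgCl2 and 1 mM ZnCl2, with or without 100 ng/mL iALP (0.01 units/mL). Samples were quenched with acetonitrile/formic acid containing labetalol. Conversion was quantified by LC-MS peak area ratios against a 2 μM product standard.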

[3] = Intestinal S9 Assay (human GI S9); format: in vitro ADME; conditions: 1.0 mg/mL S9 protein; for half-life at 2 μM: human, TRIS pH 7.4, read-out: Human GI S9 T½
Protocol: (§1) Reagents. Stock solutions of test compounds in dimethyl sulfoxide (DMSO) having a final concentration of 10 mM were prepared and used in all experiments. Sekisui XenoTech (Kansas City, KS) provided pooled intestinal S9 fractions. All other chemicals were purchased from Sigma-Aldrich (St. Louis, MO) or VWR (West Chester, PA). Internal Standard/Quench (IS/Q) used to stop reactions was 100 nM labetalol in (by volume) formic acid (1%) and acetonitrile (99%).
(§2) Intestinal S9 Assay: For each test compound, an aliquot of the test compound was added to S9 stock diluted with TRIS buffer (100 mM TRIS, 1 mM ZnCl2, 1 mM MgCl2), pH 7.4, to obtain an incubation protein concentration of 1.0 mg/mL. The incubation was initiated by the addition of the substrate to the S9 reaction mixture to a final concentration of 2 μM. At 0, 10, 20, 30, 60 and 120 min, 25 μL aliquots of the reaction mixture were transferred to plates containing 225 μl of IS/Q solution. After quenching, the plates were centrifuged at 3000×g for 30 minutes. 150 μL aliquots of each supernatant were transferred to new plates and 150 μL water was added. Aliquots (10 μL) of the prepared samples were analyzed on a Thermo Q-Exactive mass spectrometer as described below.
(§3) Liquid Chromatography-Mass Spectrometry: Quantification of test compounds and control substrate was performed by analyte/internal standard peak area ratio (PAR) values measured on a Thermo Q-Exactive mass spectrometer coupled to a Dionex UltiMate 3000 HPLC with a Leap Technologies HTC PAL autosampler. The column used for analysis was a Thermo Scientific Hypersil GOLD (1.9 μm particle size, 50×2.1 mm). Mobile phase A consisted of 0.1% (v/v) formic acid in water. Mobile phase B consisted of 0.1% (v/v) formic acid in acetonitrile. Elution of analytes was achieved by a series of linear gradients varying the proportions of A and B. The mass spectrometer was calibrated on a weekly basis and mass tolerance of 5 ppm was used.
(§4) Data Analysis. Metabolic stabilities were determined by measuring the rates of disappearance of test compound and positive control substrate. Data (% of substrate remaining) were plotted on a semi-log scale and fitted using an exponential decline model:
(§5) where • Ct% of substrate remaining at time=t • C0% of substrate remaining at time=0 • t time • T½ half-life • The Half-life (T½) is determined by the following equation:
(§6) [formula] • Assuming a first-order reaction, the slope (k) is extrapolated from the aforementioned plotted data.

[4] = Intestinal S9 Assay (dog GI S9); format: in vitro ADME; conditions: 1.0 mg/mL S9 protein; for Dog GI S9 [Intermediate A] / Dog GI S9 [Intermediate A] %: 2 μM, TRIS pH 7.4; for half-life at 2 μM: dog, TRIS pH 7.4, read-out: Dog GI S9 T½
Protocol: as §1, §2, §3, §4, §5, §6

[5] = Solubility in FaSSIF; conditions: 23 °C, pH 6.5, fassif, thermodynamic from solid
Procedure, shortened: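 Concentration measured by HPLC-UV after solid compound was dosed at 5 mg/mL into pH 6.5 fasted-state simulated intestinal fluid containing taurocholate and lecithin (4:1 molar) and vortexed.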

[6] = PBS Stability Assay; format: physicochemical; conditions: buffer, pH 7.4, 2 μM, phosphate buffered saline pH 7.4; read-out: PBS T½
Procedure, shortened: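 Test compound at 2 μM final was incubated in PBS, pH 7.4, and sampled at 0, 10, 20, 30, 60 and 120 min into acetonitrile/1% formic acid quench with labetalol internal standard. Remaining compound was quantified by LC-MS peak-area ratio, and half-life came from a first-order exponential fit.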

SMILES	pEC50 [1]	[Compound] [2] [nM]	biALP Intermediate A or [Amprenavir] (% of total) [2]	[Intermediate A] or [Amprenavir] [2] [nM]	Human GI S9 [Intermediate A] ([3]; 2 μM, TRIS pH 7.4) [nM]	Human GI S9 [Intermediate A] % ([3]; 2 μM, TRIS pH 7.4) [%]	half-life at 2 μM [3] [h]	Dog GI S9 [Intermediate A] [4] [nM]	Dog GI S9 [Intermediate A] % [4] [%]	half-life at 2 μM [4] [h]	solubility at 2 h [5] [µg/mL]	Human GI S9 T½ ([3]; 2 μM, TRIS pH 7.4) [h]	half-life at 2 μM [6] [h]
COC(=O)N[C@H](C(=O)N[C@@H](Cc1ccc(C#Cc2cnc(N3CC4CCC(C3)N4C3COC3)nc2)cc1)[C@H](CN(Cc1c(F)cc(-c2ccn(C(F)F)n2)cc1F)NC(=O)[C@@H](NC(=O)OC)C(C)(C)C(F)(F)F)OC(=O)CC(C)(C)c1c(CC(=O)Nc2cc(C(=O)O)cc(C(=O)O)c2)cccc1OP(=O)(O)O)C(C)(C)C(F)(F)F [Example 19]	7.41	1405.7	18.4 % of total	317.9	323.6	22.1	3.83	1045.1	94.7	0.3	3650 (≈ 2230 µM)		
COC(=O)N[C@H](C(=O)N[C@@H](Cc1ccc(C#Cc2cnc(N3CC4CCC(C3)N4C3COC3)nc2)cc1)[C@H](CN(Cc1c(F)cc(-c2ccn(C(F)F)n2)cc1F)NC(=O)[C@@H](NC(=O)OC)C(C)(C)C(F)(F)F)OC(=O)CC(C)(C)c1c(CC(=O)NC2(C(=O)O)CCOCC2)cc(C)cc1OP(=O)(O)O)C(C)(C)C(F)(F)F [Example 31]	6.56	2125.6					8.24			3.71	3510 (≈ 2180 µM)		
COC(=O)N[C@H](C(=O)N[C@@H](Cc1ccc(C#Cc2cnc(N3CC4CCC(C3)N4C3COC3)nc2)cc1)[C@H](CN(Cc1c(F)cc(-c2ccn(C(F)F)n2)cc1F)NC(=O)[C@@H](NC(=O)OC)C(C)(C)C(F)(F)F)OC(=O)CC(C)(C)c1c(CC(=O)N[C@@H](CCS(=O)(=O)O)C(=O)O)cccc1OP(=O)(O)O)C(C)(C)C(F)(F)F [Example 40]	7.39	1458.8					4.76			0.537	4910 (≈ 3000 µM)		
COC(=O)N[C@H](C(=O)N[C@@H](Cc1ccc(C#Cc2cnc(N3CC4CCC(C3)N4C3COC3)nc2)cc1)[C@H](CN(Cc1c(F)cc(-c2ccn(C(F)F)n2)cc1F)NC(=O)[C@@H](NC(=O)OC)C(C)(C)C(F)(F)F)OC(=O)CC(C)(C)c1c(CC(=O)N2CCC[C@H]2C(=O)O)cccc1OP(=O)(O)O)C(C)(C)C(F)(F)F [Example 46]	6.72	1864.7					7.41			5.08	2870 (≈ 1830 µM)		
COC(=O)N[C@H](C(=O)N[C@@H](Cc1ccc(C#Cc2cnc(N3CC4CCC(C3)N4C3COC3)nc2)cc1)[C@H](CN(Cc1c(F)cc(-c2ccn(C(F)F)n2)cc1F)NC(=O)[C@@H](NC(=O)OC)C(C)(C)C(F)(F)F)OC(=O)CC(C)(C)c1c(CC(=O)N2C[C@H]3[C@@H]([C@H]2C(=O)O)C3(C)C)cc(C)cc1OP(=O)(O)O)C(C)(C)C(F)(F)F [Example 47]	6.23	1950.3					6.39			7.34	3620 (≈ 2230 µM)		
COC(=O)N[C@H](C(=O)N[C@@H](Cc1ccc(C#Cc2cnc(N3CC4CCC(C3)N4C3COC3)nc2)cc1)[C@H](CN(Cc1c(F)cc(-c2ccn(C(F)F)n2)cc1F)NC(=O)[C@@H](NC(=O)OC)C(C)(C)C(F)(F)F)OC(=O)CC(C)(C)c1c(CC(=O)N2[C@@H](C)CC[C@H]2C(=O)O)cc(C)cc1OP(=O)(O)O)C(C)(C)C(F)(F)F [Example 54]	7.03	1661.6					12.9			9.44	3080 (≈ 1930 µM)		
COC(=O)N[C@H](C(=O)N[C@@H](Cc1ccc(C#Cc2cnc(N3CC4CCC(C3)N4C3COC3)nc2)cc1)[C@H](CN(Cc1c(F)cc(-c2ccn(C(F)F)n2)cc1F)NC(=O)[C@@H](NC(=O)OC)C(C)(C)C(F)(F)F)OC(=O)CC(C)(C)c1c(CC(=O)N2[C@H](C(=O)O)C[C@@H]3CCCC[C@@H]32)cc(C)cc1OP(=O)(O)O)C(C)(C)C(F)(F)F [Example 55]	5.46	1659.2					12.7			12	< 1000		
COC(=O)N[C@H](C(=O)N[C@@H](Cc1ccc(C#Cc2cnc(N3CC4CCC(C3)N4C3COC3)nc2)cc1)[C@H](CN(Cc1c(F)cc(-c2ccn(C(F)F)n2)cc1F)NC(=O)[C@@H](NC(=O)OC)C(C)(C)C(F)(F)F)OC(=O)CC(C)(C)c1c(CC(=O)N2C[C@@H](O)C[C@H]2C(=O)O)cc(C)cc1OP(=O)(O)O)C(C)(C)C(F)(F)F [Example 56]	6.59	1576.7								6.89	2400 (≈ 1500 µM)	13.2	
COC(=O)N[C@H](C(=O)N[C@@H](Cc1ccc(C#Cc2cnc(N3CC4CCC(C3)N4C3COC3)nc2)cc1)[C@H](CN(Cc1c(F)cc(-c2ccn(C(F)F)n2)cc1F)NC(=O)[C@@H](NC(=O)OC)C(C)(C)C(F)(F)F)OC(=O)CC(C)(C)c1c(CC(=O)N2CC[C@@H](O)[C@H]2C(=O)O)cc(C)cc1OP(=O)(O)O)C(C)(C)C(F)(F)F [Example 57]	6.54	1612.8					11			7.19	4100 (≈ 2560 µM)		
COC(=O)N[C@H](C(=O)N[C@@H](Cc1ccc(C#Cc2cnc(N3CC4CCC(C3)N4C3COC3)nc2)cc1)[C@H](CN(Cc1c(F)cc(-c2ccn(C(F)F)n2)cc1F)NC(=O)[C@@H](NC(=O)OC)C(C)(C)C(F)(F)F)OC(=O)CC(C)(C)c1c(CC(=O)N2C[C@H](O)C[C@H]2C(=O)O)cc(C)cc1OP(=O)(O)O)C(C)(C)C(F)(F)F [Example 58]	6.43	1573.2					12.1			7.23	4460 (≈ 2800 µM)		
COC(=O)N[C@H](C(=O)N[C@@H](Cc1ccc(C#Cc2cnc(N3CC4CCC(C3)N4C3COC3)nc2)cc1)[C@H](CN(Cc1c(F)cc(-c2ccn(C(F)F)n2)cc1F)NC(=O)[C@@H](NC(=O)OC)C(C)(C)C(F)(F)F)OC(=O)CC(C)(C)c1c(CC(=O)NCc2ccc(S(N)(=O)=O)cc2)cc(C)cc1OP(=O)(O)O)C(C)(C)C(F)(F)F [Example 62]	6.55	2213.4	0 % of total	0	22.2	1.8		38.3	3.1	13.2			
COC(=O)N[C@H](C(=O)N[C@@H](Cc1ccc(C#Cc2cnc(N3CC4CCC(C3)N4C3COC3)nc2)cc1)[C@H](CN(Cc1c(F)cc(-c2ccn(C(F)F)n2)cc1F)NC(=O)[C@@H](NC(=O)OC)C(C)(C)C(F)(F)F)OC(=O)CC(C)(C)c1c(CC(=O)N(CC(=O)O)CC(=O)O)cc(C)cc1OP(=O)(O)O)C(C)(C)C(F)(F)F [Example 106]	6.12	1588.2									3920 (≈ 2450 µM)		4.52
